Assay results as given in article doi:10.1101/2021.04.08.439011v1 (biorxiv, 2021).

What was measured:
[1] = biological target: ZAK (Homo sapiens, UniProt Q9NYL2); conditions: 1 µM; binder
[2] = biological target: SRPK3 (Homo sapiens, UniProt Q9UPE1); conditions: 1 µM; binder
[3] = biological target: MRCKB (Homo sapiens, UniProt Q9Y5S2); conditions: 1 µM; binder
[4] = biological target: HPK1 (Homo sapiens, UniProt Q92918); conditions: 1 µM; binder
[5] = biological target: EPHB3 (Homo sapiens, UniProt P54753); conditions: 1 µM; binder
[6] = biological target: EIF2AK1 (Homo sapiens, UniProt Q9BQI3); conditions: 1 µM; binder
[7] = biological target: PRKD1 (Homo sapiens, UniProt Q15139); conditions: 1 µM; binder
[8] = biological target: EGFR(S752-I759del) (Homo sapiens, UniProt P00533, DEL752-759); conditions: 1 µM; binder
[9] = biological target: CDC2L5 (Homo sapiens, UniProt Q14004); conditions: 1 µM; binder
[10] = biological target: PIKFYVE (Homo sapiens, UniProt Q9Y2I7); conditions: 1 µM; binder
[11] = biological target: YES (Homo sapiens, UniProt P07947); conditions: 1 µM; binder
[12] = biological target: CSNK1A1L (Homo sapiens, UniProt Q8N752); conditions: 1 µM; binder
[13] = biological target: GRK4 (Homo sapiens, UniProt P32298); conditions: 1 µM; binder
[14] = biological target: PLK4 (Homo sapiens, UniProt O00444); conditions: 1 µM; binder
[15] = biological target: GRK1 (Homo sapiens, UniProt Q15835); conditions: 1 µM; binder
[16] = biological target: PIM3 (Homo sapiens, UniProt Q86V86); conditions: 1 µM; binder
[17] = biological target: ERK2 (Homo sapiens, UniProt P28482); conditions: 1 µM; binder
[18] = biological target: MARK1 (Homo sapiens, UniProt Q9P0L2); conditions: 1 µM; binder
[19] = biological target: CLK2 (Homo sapiens, UniProt P49760); conditions: 1 µM; binder
[20] = biological target: ABL1(Y253F) (Homo sapiens, UniProt P00519, Y253F); conditions: phosphorylated; 1 µM; binder
[21] = biological target: CDC42BPG (Homo sapiens, UniProt Q6DT37); conditions: 1 µM; binder
[22] = biological target: MAP3K14 (Homo sapiens, UniProt Q99558); conditions: 1 µM; binder
[23] = biological target: DCAMKL1 (Homo sapiens, UniProt O15075); conditions: 1 µM; binder
[24] = biological target: MST3 (Homo sapiens, UniProt Q9Y6E0); conditions: 1 µM; binder
[25] = biological target: DCAMKL3 (Homo sapiens, UniProt Q9C098); conditions: 1 µM; binder
[26] = biological target: PDGFRB (Homo sapiens, UniProt P09619); conditions: 1 µM; binder
[27] = biological target: CDKL1 (Homo sapiens, UniProt Q00532); conditions: 1 µM; binder
[28] = biological target: KIT(V559D) (Homo sapiens, UniProt P10721, V559D); conditions: 1 µM; binder
[29] = biological target: FLT4 (Homo sapiens, UniProt P35916); conditions: 1 µM; binder
[30] = biological target: LRRK2 (Homo sapiens, UniProt Q5S007); conditions: 1 µM; binder

GRK4, sequence (P32298 whole entry): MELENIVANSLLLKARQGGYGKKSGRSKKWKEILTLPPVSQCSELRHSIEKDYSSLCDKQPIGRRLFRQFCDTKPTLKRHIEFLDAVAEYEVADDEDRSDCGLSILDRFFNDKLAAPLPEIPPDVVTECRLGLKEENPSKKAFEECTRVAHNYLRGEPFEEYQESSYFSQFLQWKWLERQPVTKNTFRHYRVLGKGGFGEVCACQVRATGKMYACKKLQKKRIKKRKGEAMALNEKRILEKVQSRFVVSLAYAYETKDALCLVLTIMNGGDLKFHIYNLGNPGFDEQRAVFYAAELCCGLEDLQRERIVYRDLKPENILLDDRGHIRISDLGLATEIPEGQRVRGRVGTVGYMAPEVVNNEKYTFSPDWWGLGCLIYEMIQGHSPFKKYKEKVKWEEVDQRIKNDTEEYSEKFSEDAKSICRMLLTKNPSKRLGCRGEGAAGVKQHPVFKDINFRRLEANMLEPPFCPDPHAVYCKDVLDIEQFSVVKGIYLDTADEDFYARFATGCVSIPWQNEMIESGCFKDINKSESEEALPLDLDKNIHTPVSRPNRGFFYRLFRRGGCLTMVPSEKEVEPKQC
DCAMKL1, sequence (O15075 whole entry): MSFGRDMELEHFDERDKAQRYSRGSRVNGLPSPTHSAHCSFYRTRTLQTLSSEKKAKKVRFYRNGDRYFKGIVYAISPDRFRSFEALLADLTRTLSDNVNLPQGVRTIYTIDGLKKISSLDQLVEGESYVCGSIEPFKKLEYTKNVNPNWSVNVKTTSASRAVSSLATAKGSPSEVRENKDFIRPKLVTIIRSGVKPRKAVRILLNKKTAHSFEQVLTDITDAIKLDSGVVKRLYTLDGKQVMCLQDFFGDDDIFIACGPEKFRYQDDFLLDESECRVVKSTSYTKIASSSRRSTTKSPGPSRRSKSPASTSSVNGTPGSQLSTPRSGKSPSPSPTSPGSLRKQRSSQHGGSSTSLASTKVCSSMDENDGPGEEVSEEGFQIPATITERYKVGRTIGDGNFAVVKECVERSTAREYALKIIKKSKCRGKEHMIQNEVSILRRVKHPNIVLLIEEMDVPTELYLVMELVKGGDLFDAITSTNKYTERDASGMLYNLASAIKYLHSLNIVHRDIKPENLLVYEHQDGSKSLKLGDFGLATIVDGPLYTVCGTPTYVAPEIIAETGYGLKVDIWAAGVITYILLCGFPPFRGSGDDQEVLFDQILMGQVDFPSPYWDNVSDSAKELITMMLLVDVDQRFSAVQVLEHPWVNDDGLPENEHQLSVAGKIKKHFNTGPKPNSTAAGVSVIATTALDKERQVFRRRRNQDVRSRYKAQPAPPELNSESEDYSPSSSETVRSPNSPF
CDC42BPG, sequence (Q6DT37 whole entry): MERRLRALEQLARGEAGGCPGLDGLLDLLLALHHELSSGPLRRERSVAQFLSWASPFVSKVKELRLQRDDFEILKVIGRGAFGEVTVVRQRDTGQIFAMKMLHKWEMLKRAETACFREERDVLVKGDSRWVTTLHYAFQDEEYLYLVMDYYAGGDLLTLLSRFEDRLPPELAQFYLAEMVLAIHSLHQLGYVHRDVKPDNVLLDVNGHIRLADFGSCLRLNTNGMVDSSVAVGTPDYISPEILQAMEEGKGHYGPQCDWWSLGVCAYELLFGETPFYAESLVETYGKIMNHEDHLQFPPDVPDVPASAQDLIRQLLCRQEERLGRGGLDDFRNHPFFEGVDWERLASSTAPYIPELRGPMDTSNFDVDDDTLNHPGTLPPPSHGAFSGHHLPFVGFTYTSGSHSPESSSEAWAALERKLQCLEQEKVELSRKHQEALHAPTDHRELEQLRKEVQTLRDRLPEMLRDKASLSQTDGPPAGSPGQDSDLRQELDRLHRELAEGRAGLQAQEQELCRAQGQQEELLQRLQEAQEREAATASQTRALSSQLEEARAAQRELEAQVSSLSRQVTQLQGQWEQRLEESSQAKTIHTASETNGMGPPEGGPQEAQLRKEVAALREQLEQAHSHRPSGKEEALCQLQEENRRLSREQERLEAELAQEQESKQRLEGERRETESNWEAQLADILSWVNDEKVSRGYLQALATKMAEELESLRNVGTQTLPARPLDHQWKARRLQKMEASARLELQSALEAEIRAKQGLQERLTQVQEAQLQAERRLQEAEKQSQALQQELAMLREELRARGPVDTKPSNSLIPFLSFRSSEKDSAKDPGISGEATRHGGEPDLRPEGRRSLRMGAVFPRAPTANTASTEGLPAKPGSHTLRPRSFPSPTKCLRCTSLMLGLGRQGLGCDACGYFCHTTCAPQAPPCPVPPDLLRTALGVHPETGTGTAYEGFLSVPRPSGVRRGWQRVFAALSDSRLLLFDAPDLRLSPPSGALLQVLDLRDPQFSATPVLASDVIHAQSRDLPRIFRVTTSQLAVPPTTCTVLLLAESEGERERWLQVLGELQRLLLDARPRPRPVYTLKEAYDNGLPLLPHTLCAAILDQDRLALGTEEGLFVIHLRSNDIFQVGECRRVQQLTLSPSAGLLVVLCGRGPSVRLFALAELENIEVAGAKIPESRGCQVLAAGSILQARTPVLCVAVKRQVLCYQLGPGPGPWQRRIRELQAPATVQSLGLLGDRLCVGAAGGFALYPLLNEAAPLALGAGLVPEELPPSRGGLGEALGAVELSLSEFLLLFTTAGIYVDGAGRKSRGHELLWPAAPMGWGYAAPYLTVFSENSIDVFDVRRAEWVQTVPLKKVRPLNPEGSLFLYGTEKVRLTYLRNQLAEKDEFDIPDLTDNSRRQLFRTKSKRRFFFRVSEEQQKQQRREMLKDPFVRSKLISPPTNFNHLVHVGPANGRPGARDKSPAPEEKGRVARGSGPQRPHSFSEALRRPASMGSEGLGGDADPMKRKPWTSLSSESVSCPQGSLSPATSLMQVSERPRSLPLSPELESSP
EIF2AK1, sequence (Q9BQI3 whole entry): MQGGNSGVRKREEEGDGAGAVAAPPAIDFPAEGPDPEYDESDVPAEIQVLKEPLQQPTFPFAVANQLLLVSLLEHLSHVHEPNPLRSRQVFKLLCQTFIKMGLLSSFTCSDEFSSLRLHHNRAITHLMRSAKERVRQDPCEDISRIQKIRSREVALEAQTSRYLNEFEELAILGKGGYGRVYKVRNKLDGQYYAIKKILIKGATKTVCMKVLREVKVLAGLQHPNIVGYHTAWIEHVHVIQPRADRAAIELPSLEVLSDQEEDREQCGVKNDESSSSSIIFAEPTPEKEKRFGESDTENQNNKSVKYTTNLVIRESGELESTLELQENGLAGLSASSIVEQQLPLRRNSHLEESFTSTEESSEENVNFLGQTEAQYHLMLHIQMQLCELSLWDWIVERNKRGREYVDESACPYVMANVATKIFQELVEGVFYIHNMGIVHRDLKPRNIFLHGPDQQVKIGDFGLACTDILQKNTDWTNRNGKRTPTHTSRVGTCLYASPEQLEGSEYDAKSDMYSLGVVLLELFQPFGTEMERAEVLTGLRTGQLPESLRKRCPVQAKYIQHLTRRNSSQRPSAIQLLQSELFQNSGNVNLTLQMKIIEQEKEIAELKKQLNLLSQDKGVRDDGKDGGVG
PRKD1, sequence (Q15139 whole entry): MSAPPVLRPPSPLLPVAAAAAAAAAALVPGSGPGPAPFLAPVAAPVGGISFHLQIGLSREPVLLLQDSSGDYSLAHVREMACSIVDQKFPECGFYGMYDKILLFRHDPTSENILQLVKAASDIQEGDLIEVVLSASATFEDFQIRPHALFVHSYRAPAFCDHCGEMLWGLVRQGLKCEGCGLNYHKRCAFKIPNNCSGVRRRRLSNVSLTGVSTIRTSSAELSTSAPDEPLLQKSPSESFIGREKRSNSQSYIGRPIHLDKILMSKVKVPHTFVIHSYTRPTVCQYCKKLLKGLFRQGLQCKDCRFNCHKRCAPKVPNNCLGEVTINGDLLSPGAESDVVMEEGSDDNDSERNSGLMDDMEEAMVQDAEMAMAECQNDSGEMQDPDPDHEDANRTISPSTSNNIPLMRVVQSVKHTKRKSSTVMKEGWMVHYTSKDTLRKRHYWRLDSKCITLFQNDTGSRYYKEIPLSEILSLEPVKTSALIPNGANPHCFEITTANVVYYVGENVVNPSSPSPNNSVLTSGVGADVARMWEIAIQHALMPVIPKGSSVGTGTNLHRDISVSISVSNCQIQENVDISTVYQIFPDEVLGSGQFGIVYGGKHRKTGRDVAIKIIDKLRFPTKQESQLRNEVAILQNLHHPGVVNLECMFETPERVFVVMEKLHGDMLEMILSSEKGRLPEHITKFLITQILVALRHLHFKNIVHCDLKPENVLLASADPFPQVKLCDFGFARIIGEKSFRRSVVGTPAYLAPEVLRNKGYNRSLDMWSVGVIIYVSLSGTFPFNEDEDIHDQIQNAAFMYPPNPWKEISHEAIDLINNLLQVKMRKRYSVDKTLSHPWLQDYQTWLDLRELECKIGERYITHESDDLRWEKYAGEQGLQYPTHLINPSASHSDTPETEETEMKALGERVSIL
CDKL1, sequence (Q00532 whole entry): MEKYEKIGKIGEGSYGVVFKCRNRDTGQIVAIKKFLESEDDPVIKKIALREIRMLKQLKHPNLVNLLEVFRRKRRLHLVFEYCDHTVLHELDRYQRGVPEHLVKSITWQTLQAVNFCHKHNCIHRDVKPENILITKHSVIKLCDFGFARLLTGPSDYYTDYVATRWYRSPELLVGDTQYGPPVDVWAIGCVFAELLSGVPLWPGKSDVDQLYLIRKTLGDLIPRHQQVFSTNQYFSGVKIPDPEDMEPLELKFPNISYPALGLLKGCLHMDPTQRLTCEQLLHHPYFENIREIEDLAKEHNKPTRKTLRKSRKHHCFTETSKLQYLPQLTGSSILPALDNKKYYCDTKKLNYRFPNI

`CNc1ncc2cc(-c3ccc(-c4cccc(C)n4)cc3Cl)c(=O)n(C[C@H]3OC[C@H](N)CO3)c2n1` [compound 6, G-5555] was tested, and the “Percent Control” value [1] was 100%, the “Percent Control” value [2] was 100% and the “Percent Control” value [3] was 5.3%. For the same compound, the “Percent Control” value [4] was 26%, the “Percent Control” value [5] was 100% and the “Percent Control” value [6] was 100%. The “Percent Control” value [7] was 17%, the “Percent Control” value [8] was 100% and the “Percent Control” value [9] was 97%. The “Percent Control” value [10] was 100%, the “Percent Control” value [11] was 100% and the “Percent Control” value [12] was 100%. For the same compound, the “Percent Control” value [13] was 100%, the “Percent Control” value [14] was 67% and the “Percent Control” value [15] was 100%. The “Percent Control” value [16] was 100%, the “Percent Control” value [17] was 86% and the “Percent Control” value [18] was 68%. For the same compound, the “Percent Control” value [19] was 100%, the “Percent Control” value [20] was 100% and the “Percent Control” value [21] was 15%. For the same compound, the “Percent Control” value [22] was 100%, the “Percent Control” value [23] was 79% and the “Percent Control” value [24] was 1.7%. For the same compound, the “Percent Control” value [25] was 0.5%, the “Percent Control” value [26] was 84% and the “Percent Control” value [27] was 100%. For the same compound, the “Percent Control” value [28] was 100%, the “Percent Control” value [29] was 100% and the “Percent Control” value [30] was 100%.
